{"source": "ChEMBL document CHEMBL4340530", "about": "“Peptide-based covalent inhibitors of MALT1 paracaspase” (Bioorg Med Chem Lett, 2019)", "key": {"[1]": {"molecular_target": "T1, Trypsin (Homo sapiens) (UniProt P07477+P07478+P35030)", "experiment": "Inhibition of trypsin (unknown origin) at 10 uM relative to control", "type": "protein assay"}, "[2]": {"molecular_target": "Caspase-7 (Homo sapiens) (UniProt P55210)", "sequence (P55210 24-198 limits assumed)": "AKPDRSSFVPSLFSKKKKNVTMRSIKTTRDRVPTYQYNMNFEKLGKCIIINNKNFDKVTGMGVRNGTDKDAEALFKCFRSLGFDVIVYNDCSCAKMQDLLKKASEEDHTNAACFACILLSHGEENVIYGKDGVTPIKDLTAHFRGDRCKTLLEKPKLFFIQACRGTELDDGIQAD", "sequence (P55210 207-303 limits assumed)": "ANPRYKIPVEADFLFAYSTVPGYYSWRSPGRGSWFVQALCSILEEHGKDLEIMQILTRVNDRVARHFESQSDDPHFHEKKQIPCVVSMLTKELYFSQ", "experiment": "Inhibition of caspase-7 (unknown origin) at 10 uM"}, "[3]": {"molecular_target": "Cathepsin B (Homo sapiens) (UniProt P07858)", "experiment": "Inhibition of cathepsin B (unknown origin) at 10 uM relative to control"}, "[4]": {"molecular_target": "Cathepsin G (Homo sapiens) (UniProt P08311)", "experiment": "Inhibition of cathepsin G (unknown origin) at 10 uM"}, "[5]": {"experiment": "Half life in mouse plasma", "type": "ADME, cell-free"}, "[6]": {"molecular_target": "Prothrombin (Homo sapiens) (UniProt P00734)", "experiment": "Inhibition of thrombin (unknown origin) at 100 nM relative to control"}, "[7]": {"molecular_target": "T2, Cathepsin K (Homo sapiens) (UniProt P43235)", "T2 sequence (whole entry)": "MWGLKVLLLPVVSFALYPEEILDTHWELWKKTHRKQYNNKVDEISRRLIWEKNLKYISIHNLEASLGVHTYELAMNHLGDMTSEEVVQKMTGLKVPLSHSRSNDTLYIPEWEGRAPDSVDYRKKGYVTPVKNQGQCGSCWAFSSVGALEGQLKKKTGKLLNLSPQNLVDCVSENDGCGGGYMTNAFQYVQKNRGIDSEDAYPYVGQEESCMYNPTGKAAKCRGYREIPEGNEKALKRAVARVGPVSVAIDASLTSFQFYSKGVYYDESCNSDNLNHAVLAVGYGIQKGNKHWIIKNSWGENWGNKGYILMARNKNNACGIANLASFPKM", "experiment": "Inhibition of cathepsin K (unknown origin) at 10 uM relative to control"}, "[8]": {"molecular_target": "T3, Cathepsin L2 (Homo sapiens) (UniProt O60911)", "T3 sequence (whole entry)": "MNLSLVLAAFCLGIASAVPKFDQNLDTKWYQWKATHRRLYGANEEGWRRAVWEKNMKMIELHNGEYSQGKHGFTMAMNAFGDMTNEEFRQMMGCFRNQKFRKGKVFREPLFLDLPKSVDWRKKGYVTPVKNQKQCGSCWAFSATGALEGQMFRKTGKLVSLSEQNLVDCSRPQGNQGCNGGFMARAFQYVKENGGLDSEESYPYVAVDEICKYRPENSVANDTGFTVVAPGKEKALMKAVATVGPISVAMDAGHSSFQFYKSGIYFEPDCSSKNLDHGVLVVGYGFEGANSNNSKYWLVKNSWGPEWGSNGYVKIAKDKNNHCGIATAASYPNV", "experiment": "Inhibition of cathepsin V (unknown origin) at 1 uM relative to control"}, "[9]": {"system": "OCI-Ly3", "experiment": "Antitumor activity against human OCI-LY3 cells xenografted in ip dosed NOD Cg-rkdc SCID Il2rgtm1Wjl/SzJ mouse assessed as effect on tumor growth administered twice daily for 16 to 24 days measured 4 hrs post-last dose", "type": "functional, organism-based"}, "[10]": {"molecular_target": "Caspase-9 (Homo sapiens) (UniProt P55211)", "experiment": "Inhibition of caspase-9 (unknown origin) at 10 uM"}, "[11]": {"molecular_target": "Caspase-4 (Homo sapiens) (UniProt P49662)", "sequence (P49662 81-270 limits assumed)": "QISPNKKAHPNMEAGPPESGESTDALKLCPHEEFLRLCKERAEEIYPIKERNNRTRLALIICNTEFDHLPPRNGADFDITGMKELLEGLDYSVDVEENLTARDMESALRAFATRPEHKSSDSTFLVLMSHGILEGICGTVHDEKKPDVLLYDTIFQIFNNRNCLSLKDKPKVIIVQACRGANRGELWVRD", "sequence (P49662 290-377 limits assumed)": "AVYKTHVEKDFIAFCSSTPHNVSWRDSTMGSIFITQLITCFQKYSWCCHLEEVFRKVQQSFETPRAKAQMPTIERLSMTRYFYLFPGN", "experiment": "Inhibition of caspase-4 (unknown origin) at 10 uM"}, "[12]": {"molecular_target": "Cathepsin B (Homo sapiens) (UniProt P07858)", "experiment": "Inhibition of cathepsin B (unknown origin) at 100 nM relative to control"}, "[13]": {"experiment": "Drug uptake in ip dosed mouse plasma by LC-MS/MS analysis", "type": "ADME, organism-based", "details": "in vivo"}, "[14]": {"experiment": "Drug uptake in iv dosed mouse plasma by LC-MS/MS analysis", "type": "ADME, organism-based", "details": "in vivo"}, "[15]": {"molecular_target": "Caspase-8 (Homo sapiens) (UniProt Q14790)", "sequence (Q14790 217-374 limits assumed)": "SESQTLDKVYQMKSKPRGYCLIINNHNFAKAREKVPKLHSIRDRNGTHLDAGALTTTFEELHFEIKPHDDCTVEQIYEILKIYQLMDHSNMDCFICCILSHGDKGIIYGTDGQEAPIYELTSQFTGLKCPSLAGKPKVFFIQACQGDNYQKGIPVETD", "sequence (Q14790 385-479 limits assumed)": "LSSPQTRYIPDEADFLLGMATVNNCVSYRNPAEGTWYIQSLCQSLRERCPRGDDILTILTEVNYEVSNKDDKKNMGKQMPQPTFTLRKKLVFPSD", "experiment": "Inhibition of caspase-8 (unknown origin) at 10 uM"}, "[16]": {"molecular_target": "Tryptase beta-2 (Homo sapiens) (UniProt P20231)", "sequence (P20231 whole entry)": "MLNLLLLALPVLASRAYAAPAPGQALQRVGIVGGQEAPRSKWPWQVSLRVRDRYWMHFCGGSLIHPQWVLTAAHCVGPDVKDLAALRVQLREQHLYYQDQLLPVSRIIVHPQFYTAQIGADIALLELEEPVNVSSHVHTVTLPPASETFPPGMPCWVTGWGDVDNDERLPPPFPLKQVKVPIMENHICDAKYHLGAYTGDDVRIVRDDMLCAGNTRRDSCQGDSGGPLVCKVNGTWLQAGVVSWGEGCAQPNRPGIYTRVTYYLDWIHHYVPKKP", "experiment": "Inhibition of tryptase b2 (unknown origin) at 100 nM relative to control"}, "[17]": {"molecular_target": "T4, Calpain1/2 (Homo sapiens) (UniProt P17655+P07384)", "T4 sequence (P07384 whole entry, looked up)": "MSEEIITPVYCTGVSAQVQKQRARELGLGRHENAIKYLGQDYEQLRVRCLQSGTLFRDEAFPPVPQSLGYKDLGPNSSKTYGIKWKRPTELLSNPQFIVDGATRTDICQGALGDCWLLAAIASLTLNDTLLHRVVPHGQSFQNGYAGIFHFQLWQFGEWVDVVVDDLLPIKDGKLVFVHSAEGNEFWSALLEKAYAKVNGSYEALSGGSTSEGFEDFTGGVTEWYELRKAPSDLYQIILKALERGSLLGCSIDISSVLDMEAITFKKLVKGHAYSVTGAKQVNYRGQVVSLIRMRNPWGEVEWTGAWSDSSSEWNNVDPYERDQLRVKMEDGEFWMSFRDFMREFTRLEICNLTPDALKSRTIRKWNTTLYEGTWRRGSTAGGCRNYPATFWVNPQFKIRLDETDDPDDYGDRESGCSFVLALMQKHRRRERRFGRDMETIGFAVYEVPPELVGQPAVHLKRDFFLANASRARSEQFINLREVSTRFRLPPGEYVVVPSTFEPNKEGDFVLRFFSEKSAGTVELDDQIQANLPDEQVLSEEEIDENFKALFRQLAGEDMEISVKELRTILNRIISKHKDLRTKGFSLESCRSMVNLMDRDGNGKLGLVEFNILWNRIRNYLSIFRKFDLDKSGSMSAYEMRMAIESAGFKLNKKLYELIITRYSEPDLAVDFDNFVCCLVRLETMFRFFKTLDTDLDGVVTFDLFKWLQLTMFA", "T4 sequence (P17655 whole entry, looked up)": "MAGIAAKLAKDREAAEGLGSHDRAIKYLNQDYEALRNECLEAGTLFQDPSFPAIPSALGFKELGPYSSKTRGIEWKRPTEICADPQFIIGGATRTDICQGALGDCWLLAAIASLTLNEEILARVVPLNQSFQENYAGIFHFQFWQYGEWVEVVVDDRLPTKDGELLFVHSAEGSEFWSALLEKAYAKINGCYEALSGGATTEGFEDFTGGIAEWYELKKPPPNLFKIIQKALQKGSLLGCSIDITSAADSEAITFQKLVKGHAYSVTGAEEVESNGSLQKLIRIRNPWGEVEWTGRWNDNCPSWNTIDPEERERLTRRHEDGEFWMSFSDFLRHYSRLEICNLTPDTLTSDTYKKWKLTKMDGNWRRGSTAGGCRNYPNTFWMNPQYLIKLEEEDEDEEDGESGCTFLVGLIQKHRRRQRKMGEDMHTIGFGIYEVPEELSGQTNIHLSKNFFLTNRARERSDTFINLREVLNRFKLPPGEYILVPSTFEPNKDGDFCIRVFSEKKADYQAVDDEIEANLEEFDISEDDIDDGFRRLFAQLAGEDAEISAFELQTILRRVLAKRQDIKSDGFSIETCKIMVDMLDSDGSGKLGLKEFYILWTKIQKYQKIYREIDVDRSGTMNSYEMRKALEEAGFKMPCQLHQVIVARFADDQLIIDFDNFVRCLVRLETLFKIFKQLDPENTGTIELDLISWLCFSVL", "experiment": "Inhibition of calpain (unknown origin) at 100 nM relative to control", "type": "protein assay"}, "[18]": {"molecular_target": "T1, Trypsin (Homo sapiens)", "experiment": "Inhibition of trypsin (unknown origin) at 100 nM relative to control", "type": "protein assay"}, "[19]": {"molecular_target": "T2, Cathepsin K (Homo sapiens)", "experiment": "Inhibition of cathepsin K (unknown origin) at 100 nM relative to control"}, "[20]": {"molecular_target": "Caspase-3 (Homo sapiens) (UniProt P42574)", "sequence (P42574 29-175 limits assumed)": "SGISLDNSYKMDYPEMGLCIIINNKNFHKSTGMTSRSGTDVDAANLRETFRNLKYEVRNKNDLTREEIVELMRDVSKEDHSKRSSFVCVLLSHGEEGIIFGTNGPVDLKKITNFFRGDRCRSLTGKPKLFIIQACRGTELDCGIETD", "sequence (P42574 176-277 limits assumed)": "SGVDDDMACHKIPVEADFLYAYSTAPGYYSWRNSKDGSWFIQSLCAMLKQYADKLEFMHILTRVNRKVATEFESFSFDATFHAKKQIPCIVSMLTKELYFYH", "experiment": "Inhibition of caspase-3 (unknown origin) at 10 uM"}, "[21]": {"molecular_target": "Cathepsin S (Homo sapiens) (UniProt P25774)", "sequence (P25774 115-331 limits assumed)": "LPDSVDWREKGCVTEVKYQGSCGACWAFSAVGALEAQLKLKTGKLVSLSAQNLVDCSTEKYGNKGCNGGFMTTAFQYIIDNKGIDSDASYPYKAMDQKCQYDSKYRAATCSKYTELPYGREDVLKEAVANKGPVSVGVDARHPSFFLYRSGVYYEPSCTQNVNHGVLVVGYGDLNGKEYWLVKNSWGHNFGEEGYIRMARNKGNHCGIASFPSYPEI", "experiment": "Inhibition of cathepsin S (unknown origin) at 10 uM relative to control"}, "[22]": {"molecular_target": "Cathepsin S (Homo sapiens) (UniProt P25774)", "experiment": "Inhibition of cathepsin S (unknown origin) at 100 nM relative to control"}, "[23]": {"molecular_target": "Urokinase-type plasminogen activator (Homo sapiens) (UniProt P00749)", "experiment": "Inhibition of urokinase (unknown origin) at 10 uM"}, "[24]": {"molecular_target": "Legumain (Homo sapiens) (UniProt Q99538)", "sequence (Q99538 whole entry)": "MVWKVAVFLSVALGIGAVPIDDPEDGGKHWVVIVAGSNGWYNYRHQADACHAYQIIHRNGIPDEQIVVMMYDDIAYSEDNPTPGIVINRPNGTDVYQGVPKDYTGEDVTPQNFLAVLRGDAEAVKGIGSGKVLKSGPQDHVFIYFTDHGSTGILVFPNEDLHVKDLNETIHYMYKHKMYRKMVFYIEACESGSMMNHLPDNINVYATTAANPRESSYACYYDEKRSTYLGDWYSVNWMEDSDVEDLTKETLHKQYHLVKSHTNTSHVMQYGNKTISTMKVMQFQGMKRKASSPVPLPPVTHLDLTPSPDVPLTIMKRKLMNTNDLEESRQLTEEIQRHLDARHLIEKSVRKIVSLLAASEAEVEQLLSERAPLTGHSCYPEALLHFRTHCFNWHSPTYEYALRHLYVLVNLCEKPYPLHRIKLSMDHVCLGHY", "experiment": "Inhibition of legumain (unknown origin) at 10 uM"}, "[25]": {"molecular_target": "Prothrombin (Homo sapiens) (UniProt P00734)", "experiment": "Inhibition of thrombin (unknown origin) at 10 uM relative to control"}, "[26]": {"molecular_target": "T1, Trypsin (Homo sapiens)", "experiment": "Inhibition of trypsin (unknown origin) at 1 uM relative to control", "type": "protein assay"}, "[27]": {"molecular_target": "Cathepsin D (Homo sapiens) (UniProt P07339)", "sequence (P07339 65-162 limits assumed)": "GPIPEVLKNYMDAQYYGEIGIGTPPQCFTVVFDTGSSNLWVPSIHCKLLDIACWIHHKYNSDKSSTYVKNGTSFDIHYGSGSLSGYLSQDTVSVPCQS", "sequence (P07339 169-412 limits assumed)": "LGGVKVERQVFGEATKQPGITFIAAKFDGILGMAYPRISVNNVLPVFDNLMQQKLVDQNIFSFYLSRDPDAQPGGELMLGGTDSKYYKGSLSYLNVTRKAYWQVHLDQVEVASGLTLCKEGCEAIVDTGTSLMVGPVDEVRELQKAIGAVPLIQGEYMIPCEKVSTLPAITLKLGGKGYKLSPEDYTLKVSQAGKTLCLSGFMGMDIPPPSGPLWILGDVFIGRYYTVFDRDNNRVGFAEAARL", "experiment": "Inhibition of cathepsin D (unknown origin) at 10 uM"}, "[28]": {"molecular_target": "T4, Calpain1/2 (Homo sapiens)", "experiment": "Inhibition of calpain (unknown origin) at 1 uM relative to control", "type": "protein assay"}, "[29]": {"molecular_target": "Kallikrein-1 (Homo sapiens) (UniProt P06870)", "sequence (P06870 25-262 limits assumed)": "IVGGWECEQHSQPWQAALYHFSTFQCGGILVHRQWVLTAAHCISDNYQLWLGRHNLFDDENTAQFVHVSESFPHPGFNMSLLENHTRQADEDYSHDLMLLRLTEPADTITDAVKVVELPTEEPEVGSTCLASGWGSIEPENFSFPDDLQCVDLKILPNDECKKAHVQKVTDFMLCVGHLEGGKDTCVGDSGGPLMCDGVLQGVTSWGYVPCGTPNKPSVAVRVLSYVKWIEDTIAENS", "experiment": "Inhibition of KLK1 (unknown origin) at 10 uM"}, "[30]": {"molecular_target": "T4, Calpain1/2 (Homo sapiens)", "experiment": "Inhibition of calpain (unknown origin) at 10 uM relative to control", "type": "protein assay"}, "[31]": {"molecular_target": "Caspase-1 (Homo sapiens) (UniProt P29466)", "sequence (P29466 120-297 limits assumed)": "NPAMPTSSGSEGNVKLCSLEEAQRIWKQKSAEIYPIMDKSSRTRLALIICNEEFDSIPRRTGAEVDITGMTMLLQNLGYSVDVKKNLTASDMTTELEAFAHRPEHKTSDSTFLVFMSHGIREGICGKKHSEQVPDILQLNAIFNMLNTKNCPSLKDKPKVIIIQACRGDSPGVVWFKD", "sequence (P29466 317-404 limits assumed)": "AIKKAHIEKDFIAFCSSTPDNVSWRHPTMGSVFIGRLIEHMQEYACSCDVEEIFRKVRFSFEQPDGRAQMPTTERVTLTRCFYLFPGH", "experiment": "Inhibition of caspase-1 (unknown origin) at 10 uM"}, "[32]": {"molecular_target": "T3, Cathepsin L2 (Homo sapiens)", "experiment": "Inhibition of cathepsin V (unknown origin) at 10 uM relative to control"}, "[33]": {"molecular_target": "Caspase-6 (Homo sapiens) (UniProt P55212)", "sequence (P55212 24-179 limits assumed)": "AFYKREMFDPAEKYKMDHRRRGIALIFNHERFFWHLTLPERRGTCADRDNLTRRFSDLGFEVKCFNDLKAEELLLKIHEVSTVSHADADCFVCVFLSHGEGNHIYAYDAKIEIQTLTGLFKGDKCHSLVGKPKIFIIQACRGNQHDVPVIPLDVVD", "sequence (P55212 194-293 limits assumed)": "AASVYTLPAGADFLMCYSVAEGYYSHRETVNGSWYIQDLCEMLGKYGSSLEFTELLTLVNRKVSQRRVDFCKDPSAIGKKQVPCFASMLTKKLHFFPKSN", "experiment": "Inhibition of caspase-6 (unknown origin) at 10 uM"}, "[34]": {"system": "OCI-Ly1", "experiment": "Antitumor activity against human OCI-LY1 cells xenografted in ip dosed NOD.CB17-Prkdc SCID mouse assessed as effect on tumor growth administered twice daily for 16 to 24 days measured 4 hrs post-last dose", "type": "functional, organism-based"}}, "note": "Activity calls are given as the source filed them. The rule behind the calls is not given here."}
{"smiles": "CC(C)[C@H](NC(=O)c1ccc(Br)cc1)C(=O)N1CCC[C@H]1C(=O)N[C@@H](CCCNC(=N)N)C(=O)CF", "values": [{"measurement": "inhibition", "setting": "[1]", "result": 95.3, "unit": "%"}, {"measurement": "inhibition", "setting": "[2]", "result": "Active"}, {"measurement": "inhibition", "setting": "[3]", "result": 99.6, "unit": "%"}, {"measurement": "inhibition", "setting": "[4]", "result": "Active"}, {"measurement": "t1/2", "setting": "[5]", "result": 4.3, "unit": "h"}, {"measurement": "inhibition", "setting": "[6]", "result": 14.8, "unit": "%"}, {"measurement": "inhibition", "setting": "[7]", "result": 98.7, "unit": "%"}, {"measurement": "inhibition", "setting": "[8]", "result": 56.9, "unit": "%"}, {"measurement": "Activity", "setting": "[9]", "result": "Active"}, {"measurement": "inhibition", "setting": "[10]", "result": "Active"}, {"measurement": "inhibition", "setting": "[11]", "result": "Active"}, {"measurement": "inhibition", "setting": "[12]", "result": 34.2, "unit": "%"}, {"measurement": "Drug uptake", "setting": "[13]", "result": "Active"}, {"measurement": "Drug uptake", "setting": "[14]", "result": "Active"}, {"measurement": "inhibition", "setting": "[15]", "result": "Active"}, {"measurement": "inhibition", "setting": "[16]", "result": 6.1, "unit": "%"}, {"measurement": "inhibition", "setting": "[17]", "result": 23.6, "unit": "%"}, {"measurement": "inhibition", "setting": "[18]", "result": 92.9, "unit": "%"}, {"measurement": "inhibition", "setting": "[19]", "result": 63.2, "unit": "%"}, {"measurement": "inhibition", "setting": "[20]", "result": "Active"}, {"measurement": "inhibition", "setting": "[21]", "result": 99.1, "unit": "%"}, {"measurement": "inhibition", "setting": "[22]", "result": 78.2, "unit": "%"}, {"measurement": "inhibition", "setting": "[23]", "result": "Active"}, {"measurement": "inhibition", "setting": "[24]", "result": "Active"}, {"measurement": "inhibition", "setting": "[25]", "result": 83, "unit": "%"}, {"measurement": "inhibition", "setting": "[26]", "result": 98, "unit": "%"}, {"measurement": "inhibition", "setting": "[27]", "result": "Active"}, {"measurement": "inhibition", "setting": "[28]", "result": 25.6, "unit": "%"}, {"measurement": "inhibition", "setting": "[29]", "result": "Active"}, {"measurement": "inhibition", "setting": "[30]", "result": 105, "unit": "%"}, {"measurement": "inhibition", "setting": "[31]", "result": "Active"}, {"measurement": "inhibition", "setting": "[32]", "result": 89.4, "unit": "%"}, {"measurement": "inhibition", "setting": "[33]", "result": "Active"}, {"measurement": "Activity", "setting": "[34]", "result": "Active"}]}
